Source: ChEMBL document CHEMBL3044647, “Tests for Evaluating the Side Effects of Chlorothalonil (TPN) and Spinosad on the Parasitic Wasp (Aphidius colemani)” (J Pestic Sci, 2005)

Key:
Aphidius colemani [1] = assay: Drug uptake in Aphidius colemani at 400 mg/l treated as spraying; type: ADME, organism-based; details: in vivo, topical_or_ocular
[2] = Contact toxicity against Aphidius colemani assessed as mortality at 400 mg/l after 24 hr relative to control; type: organism-based; details: in vivo, other: contact
Aphidius colemani [3] = assay: Drug uptake in Aphidius colemani at 400 mg/l treated as dipping; type: ADME, organism-based; details: in vivo, topical_or_ocular
[4] = Toxicity against Aphidius colemani assessed as mortality at 400 mg/l, po after 24 hr; type: organism-based; details: in vivo
[5] = Contact toxicity against Aphidius colemani assessed as mortality at 400 mg/l after 24 hr; type: organism-based; details: in vivo, other: contact
[6] = Toxicity against Aphidius colemani assessed as mortality at 400 mg/l, po after 24 hr relative to control; type: organism-based; details: in vivo

**Q.** Which Drug uptake (Aphidius colemani [1]) does the source give for N#Cc1c(Cl)c(Cl)c(Cl)c(C#N)c1Cl [CHLOROTHALONIL] here?
**A.** Its Drug uptake is 25.1 ng.

**Q.** What about the mortality at 24 h [2] of the same compound?
**A.** The mortality at 24 h was 8.7%.

**Q.** And the Drug uptake (Aphidius colemani [3])?
**A.** Its Drug uptake is 5.5 ng.

**Q.** What about the mortality at 24 h [4] of the same compound?
**A.** Its mortality at 24 h is 0%.

**Q.** What about the mortality at 24 h [5] of the same compound?
**A.** Its mortality at 24 h is 30%.

**Q.** What about the mortality at 24 h [6] of the same compound?
**A.** Its mortality at 24 h is 0%.
